Experimental data: ChEMBL document CHEMBL5506042, “Discovery of the Clinical Candidate IDOR-1117-2520: A Potent and Selective Antagonist of CCR6 for Autoimmune Diseases” (J Med Chem, 2024)
Calls of active or inactive are those of the source. No cut-off for these calls is given here.

Tests used:
[1] = AUC in C57BL/6 mouse at 15 mg/kg, po; format: ADME, organism-based; settings: in vivo
[2] = Chemical stability of the compound at 0.1 mg/ml at pH 10 irradiated with xenon lamp at 250W/m2 incubated for 24 hrs by stress test; format: physicochemical; settings: buffer, read-out: Stability
[3] = Intrinsic clearance in rat liver microsomes at 0.1 uM measured for 15 mins in presence of NADPH regenerating system by LC-MS/MS analysis; format: ADME, Microsome; settings: read-out: CLH
Mus musculus [4] = experiment: Inhibition of chemotaxis of CCR6-positive B cells in bronchoalveolar lavage fluid in ovalbumin-induced inflammation BALB/c mouse model at 15 mg/kg/day, po treated with OVA and compound from day 1 to day 18 and measured at 24 hrs post last dose of OVA challenge by flow cytometry; format: functional, organism-based; settings: time 18.0 day
[5] = Lipophilicity, LogD of the compound in 1-Octanol/PBS at pH 7.4 by miniaturized shake flask method
[6] = Chemical stability of the compound at 0.1 mg/ml at pH 2 irradiated with xenon lamp at 250W/m2 incubated for 24 hrs by stress test; format: physicochemical; settings: buffer, read-out: Stability
[7] = Cmax in Wistar rat at 10 mg/kg, po; format: ADME, organism-based; settings: in vivo
Mus musculus [8] = experiment: Inhibition of chemotaxis of CCR6-positive B cells in bronchoalveolar lavage fluid in ovalbumin-induced inflammation BALB/c mouse model at 15 mg/kg/day, po treated with OVA from day 1 to day 18 and with compound from day 8 to 18 and measured at 24 hrs post last dose of OVA challenge by flow cytometry; format: functional, organism-based; settings: time 11.0 day
[9] = Intrinsic clearance in rat liver microsomes at 1 uM measured for 15 mins in presence of NADPH regenerating system by LC-MS/MS analysis; format: ADME, Microsome; settings: read-out: CLH
[10] = Tmax in C57BL/6 mouse at 50 mg/kg, po; format: ADME, organism-based; settings: in vivo
[11] = Tmax in Wistar rat at 10 mg/kg, po; format: ADME, organism-based; settings: in vivo
[12] = Intrinsic clearance in human liver microsomes at 1 uM measured for 15 mins in presence of NADPH regenerating system measured per mg protein by LC-MS/MS analysis; format: ADME, Microsome; settings: read-out: CLH
[13] = Intrinsic clearance in mouse liver microsomes at 1 uM measured for 15 mins in presence of NADPH regenerating system by LC-MS/MS analysis; format: ADME, Microsome; settings: read-out: CLH
HepaRG = experiment: Cytotoxicity against human HepaRG cells assessed as leakage of intracellular LDH at 30 uM incubated for 24 hrs by spectrophotometry
[14] = Oral bioavailability in Wistar rat at 10 mg/kg; format: ADME, organism-based; settings: in vivo
[15] = fCmax in po dosed C57BL/6 mouse; format: ADME, organism-based; settings: in vivo
[16] = Chemical stability of the compound at 0.1 mg/ml at pH 4 irradiated with xenon lamp at 250W/m2 incubated for 24 hrs by stress test; format: physicochemical; settings: buffer, read-out: Stability
[17] = Cmax in Wistar rat at 50 mg/kg, po; format: ADME, organism-based; settings: in vivo
[18] = Chemical stability of the compound at 0.1 mg/ml at pH 9 irradiated with xenon lamp at 250W/m2 incubated for 24 hrs by stress test; format: physicochemical; settings: buffer, read-out: Stability
[19] = Cmax in C57BL/6 mouse at 50 mg/kg, po; format: ADME, organism-based; settings: in vivo
[20] = Tmax in C57BL/6 mouse at 15 mg/kg, po; format: ADME, organism-based; settings: in vivo
[21] = Fraction unbound in rat plasma at 1 uM by rapid equilibrium dialysis based LC-MS/MS analysis; format: ADME, cell-free
[22] = biological target: T1, C-C chemokine receptor type 6 (Mus musculus, UniProt O54689); experiment: Antagonist activity at CCR6 in C57BL/6J mouse whole blood assessed as inhibition of CCL20-stimulated receptor internalization in lymphocytes incubated for 40 mins followed by CCL20 addition and measured after 40 mins by flow cytometry
T1 sequence (O54689 whole entry): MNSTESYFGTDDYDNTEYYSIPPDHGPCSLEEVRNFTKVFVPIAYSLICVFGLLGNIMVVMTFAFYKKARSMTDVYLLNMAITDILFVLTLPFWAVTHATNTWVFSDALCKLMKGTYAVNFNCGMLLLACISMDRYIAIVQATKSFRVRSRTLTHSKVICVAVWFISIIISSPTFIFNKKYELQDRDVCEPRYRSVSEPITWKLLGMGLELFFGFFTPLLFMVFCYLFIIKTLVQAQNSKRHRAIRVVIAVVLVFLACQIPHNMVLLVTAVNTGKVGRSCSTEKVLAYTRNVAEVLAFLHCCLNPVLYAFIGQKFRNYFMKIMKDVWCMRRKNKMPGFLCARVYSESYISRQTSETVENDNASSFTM

[23] = Intrinsic clearance in rat liver microsomes at 3 uM measured for 15 mins in presence of NADPH regenerating system by LC-MS/MS analysis; format: ADME, Microsome; settings: read-out: CLH
[24] = Half life in Wistar rat at 1 mg/kg, iv; format: ADME, organism-based; settings: in vivo
[25] = AUC in Wistar rat at 10 mg/kg, po; format: ADME, organism-based; settings: in vivo
[26] = Clearance in Wistar rat at 1 mg/kg, iv; format: ADME, organism-based; settings: in vivo
[27] = Oral bioavailability in Wistar rat at 50 mg/kg; format: ADME, organism-based; settings: in vivo
[28] = Cmax in C57BL/6 mouse at 15 mg/kg, po; format: ADME, organism-based; settings: in vivo
[29] = AUC in C57BL/6 mouse at 50 mg/kg, po; format: ADME, organism-based; settings: in vivo
[30] = Volume of distribution at steady state in Wistar rat at 1 mg/kg, iv; format: ADME, organism-based; settings: in vivo, read-out: Vdss
[31] = Tmax in Wistar rat at 50 mg/kg, po; format: ADME, organism-based; settings: in vivo
[32] = Chemical stability of the compound at 0.1 mg/ml at pH 7 irradiated with xenon lamp at 250W/m2 incubated for 24 hrs by stress test; format: physicochemical; settings: buffer, read-out: Stability
[33] = AUC in Wistar rat at 50 mg/kg, po; format: ADME, organism-based; settings: in vivo
[34] = Fraction unbound in mouse plasma at 1 uM by rapid equilibrium dialysis based LC-MS/MS analysis; format: ADME, cell-free
[35] = Cytotoxicity against human HepG2 cells assessed as reduction in cell viability incubated for 72 hrs by CellTiter-Glo assay

## CN1CC(C)(C(O)(c2ccc(OC(F)(F)F)cc2)c2cncc(N3CCCC3)c2)C1 (racemic)
[1]
  AUC: 0.145 µg·h/mL
[2]
  remaining at 24 h, 0.1 mg/ml: 2%
[3]
  microsomal CLint at […], 0.1 µM: > 1250 µL/min/mg
Mus musculus [4]
  inhibition: Active
[5]
  logD: 2.2
[6]
  remaining at 24 h, 0.1 mg/ml: 97%
[7]
  Cmax: 0.11 µg/mL
Mus musculus [8]
  inhibition: Active
[9]
  microsomal CLint at […], 1 µM: 750 µL/min/mg
[10]
  Tmax: 120 min
[11]
  Tmax: 30 min
[12]
  microsomal CLint at […], 1 µM: 146 µL/min/mg
[13]
  microsomal CLint at […], 1 µM: 666 µL/min/mg
HepaRG
  Activity: Non-Toxic
[14]
  bioavailability: 6%
[15]
  fCmax: 55 ng/mL
[16]
  remaining at 24 h, 0.1 mg/ml: 4%
[17]
  Cmax: 0.308 µg/mL
[18]
  remaining at 24 h, 0.1 mg/ml: 2%
[19]
  Cmax: 1.1 µg/mL
[20]
  Tmax: 30 min
[21]
  fraction unbound at 1 µM: 0.06
[22]
  IC50: 0.0013 µM
[23]
  microsomal CLint at […], 3 µM: 450 µL/min/mg
[24]
  half-life: 144 min
[25]
  AUC: 0.165 µg·h/mL
[26]
  clearance: 3.72 L/h/kg
[27]
  bioavailability: 11%
[28]
  Cmax: 0.03 µg/mL
[29]
  AUC: 5.03 µg·h/mL
[30]
  Vd: 11 L/kg
[31]
  Tmax: 30 min
[32]
  remaining at 24 h, 0.1 mg/ml: 3%
[33]
  AUC: 1.5 µg·h/mL
[34]
  fraction unbound at 1 µM: 0.05
[35]
  IC50 at 72 h: 11 µM
